Earlier results in PMC8472830, “Inclusion of Medium-Chain Triglyceride in Lipid-Based Formulation of Cannabidiol Facilitates Micellar Solubilization In Vitro, but In Vivo Performance Remains Superior with Pure Sesame Oil Vehicle” (Pharmaceutics, 2021).

Experiments:
[1] = design: method as in PMID 29109461, PMID 27648135; details: rats, oral, natural sesame oil vehicle
[2] = design: method as in PMID 32634571; details: healthy male volunteers
[3] = design: method as in PMID 12412831; details: pH 7.4

C=C(C)[C@@H]1CCC(C)=C[C@H]1c1c(O)cc(CCCCC)cc1O [CBD, Cannabidiol]
Drug concentration in lymph fluid compared to plasma [1]: 250 fold | Increase of systemic bioavailability of CBD compared to the lipid-free vehicle [1]: 2.8 fold | Increase of CBD oral absorption in sesame oil compared to CBD powder [2]: eight-fold | clogD7.4 [3]: 6.53
